Experimental data: US9221873B1, “Short-chain peptide capable of controlling spermatozoa fertilization performance” (NATIONAL TAIWAN UNIVERSITY, priority 2014, dated 2015)

Assays:
mouse spermatozoa = test: Measuring the [Ca2+]i in spermatozoa (Fluo-4 AM fluorescence); type: cell-based; settings: FIG. 1; for [Ca2+]i increases by (change in fluorescent intensity, (F'-F0)/F0): plateau phase 27-30 minutes
Description: Spermatozoa are prepared for measuring changes in the intracellular concentration of free calcium ions ([Ca^2]i). Modified HEPES medium (120 mM of NaCl, 2 mM of KCl, 1.2 mM of MgSO4.7H2O, 0.36 mM of NaH2PO4, 15 mM of NaHCO3, 10 mM of HEPES, 5.6 mM of glucose, 1.1 mM of sodium pyruvate, 18.5 mM of sucrose, 100 IU/ml of penicillin, and 100 μg/ml of streptomycin), spermatozoa culture medium, is pre-incubated in incubator with 5% CO2 at 37° C. for 24 hours before using to adjust the medium pH ranges between 7.3 and 7.4. The cauda epididymis is cut into several pieces, incubated in the medium at 37° C. for 20 minutes, put on 1 ml of 75% (v/v) Percoll solution, and centrifuged at 300×g for 30 minutes to isolate higher motility spermatozoa for [Ca^2+]i measurement experiment.
Changes in the [Ca^2+]i in uncapacitated spermatozoa are measured. Spermatozoa (1×10^8 cells per milliliter) is incubated in modified HEPES medium, containing 15 μM of Fluo-4 AM, in the darkness at 37° C. for 45 minutes. Fluo-4 AM is a fluorescent Ca^2+ indicator capable of penetrating cell membranes. Then, the spermatozoa are washed thrice by 100×g centrifugation at room temperature for 5 minutes to remove the residual dye. The sperm cell pellet is suspended in a modified HEPES medium, containing 1.8 mM of CaCl2, and the cell concentration is adjusted to 5×10^6 cells per milliliter. […] The changes of fluorescent intensity are measured with the Synergy H1 Hybrid Multi-Mode Microplate Reader (Bio-Tek, Winooski, Vt., USA) at 37° C. via an excitation wavelength of 485 nm and an emission wavelength of 520 nm. […] Changes in [Ca^2+]i are calculated with the equation (F′−F0)/F0 (%), wherein F′ denotes the fluorescent intensity measured at different time points during the experiment, and F0 denotes the average of fluorescent intensity measured 0 to 5 minutes before adding kisspeptin-10. Last but not least, the average change in the fluorescent intensity during the plateau phase (27˜30 minutes) of [Ca^2+]i is calculated.

spermatozoa = test: IVF test (in vitro fertilization, success fertilization rate); type: cell-based, mouse; settings: spermatozoa incubated with 50 μM during capacitation, 2 hours, 37° C.; control group larger than 80%; binds KISS1R; FIG. 2
Description: In the in vitro fertilization experiment, spermatozoa isolated from cauda epididymis are incubated in HTF (human tubal fluid) medium (Merck Millipore) at 37° C. for 20 minutes and then diluted the cell concentration to 1×10^6 spermatozoa per milliliter.
The uncapacitated spermatozoa is incubated in HTF medium and then treated with peptide 234 during capacitation step, such that kisspeptin signal effects on final fertilization step is evaluated. The 0.9% saline is added to the control group to substitute for the peptide 234 solution. In detail, spermatozoa (1×10^6 cell per milliliter) are incubated in a capacitation-condition medium with 50 μM peptide 234 or saline at 37° C. for 2 hours. Then, the fertilization process begins with the introduction of cumulus-oocyte complexes (COCs) into the culture medium and incubation at 37° C. for 6 hours. The oocytes are washed thrice and incubated in KSOM+AAs culture medium (potassium simplex optimized medium plus amino acids, Merk Millipore) for 24 hours. The success fertilization rate is calculated according to the ratio of the number of two-cell embryos to the total number of oocytes. […]

## kisspeptin 10: short-chain peptide kisspeptin-10 (SEQ ID NO:6), rodent expressed kisspeptin, purchased from Kelowna international Scientific (YNWNSFGLRY; Rodent expressed kisspeptin-10)
Mouse spermatozoa; mouse spermatozoa treated with 50 μM
  [Ca2+]i increases by (change in fluorescent intensity, (F'-F0)/F0): 85.5±14.4%
Mouse spermatozoa; mouse spermatozoa treated with 100 μM
  [Ca2+]i increases by (change in fluorescent intensity, (F'-F0)/F0): 129.9±24.9%
Mouse spermatozoa; mouse spermatozoa treated with 25, 50 and 100 μM
  [Ca2+]i change (fluorescent intensity), in words: increases

## peptide 234: kisspeptin antagonist peptide 234 (SEQ ID NO:10), binds to KISS1R on the spermatozoa (ANWNGFGWRF; Kisspeptin antagonist peptide 234)
spermatozoa
  success fertilization rate (two-cell embryos / total oocytes): less than 60%
